These results are taken from patent publication US20160286800A1, “STABILIZED COMPOSITION OF AN OXIDIZER AND METAL IONS, METHOD AND USE FOR IMPROVING DISEASE CONTROL, AND KIT FOR PREPARING SAID COMPOSITION” (AGRI-NÉO INC., priority 2013, published 2016).

Entries after “also recorded” stand apart in the source; their conditions may differ. Where two headings read alike, the source gives them in different places.

The nature of data set [1]: Peracetic acid concentration in aqueous solution over time, Lamotte peracetic acid test kit (code 7191-01). Type of data set: physicochemical. The note with it: with or without copper hydroxide / metal ions. The text has this: Those skilled in the art know how to monitor levels of peracetic in solutions. For instance, it is known to use iodometric titration (F. P. Greenspan and D. G. MacKellar, 1948, Anal. Chem., 20, 1061) or to use analytical test strips. Suitable test strips include those manufactured by Merck and which are currently available under two different formats (i.e. 5-50 ppm and 100-500 ppm). These test strips provide a rapid, convenient semi-quantitative method of determining peracetic levels. LaMotte Company (Chestertown, Md., USA) also provides a test kit (code 7191-01) for titrating peracetic acid.
Peracetic acid was generated by admixing with water a powdered product which is hereinafter called ATO CIDE. More particularly, 2 grams of the powdered product identified hereinafter under the name ATO CIDE was added and mixed for 10 minutes with in 1 liter of water, to give a solution of 2 g/L ATO CIDE. ATO CIDE is a powdered mixture consisting of:
Then, 100 mL of the above-mentioned solution of peracetic acid (i.e ATO CIDE solution) was mixed for 5 minutes with 0.1 g of a powdered product sold under the trademark PARASOL WG®. PARASOL WG® is a powdered product comprising 50% elemental copper as copper hydroxide.
Then, a 100 mL of the above-mentioned solution of peracetic acid (i.e ATO CIDE solution) was mixed for 5 minutes 0.2 mL of a complexing agent (PBTCA) until the sequestering agent was dissolved completely, and then 0.1 g of a powdered product sold under the trademark PARASOL WG® is added and dissolved with the resulting mixture. PARASOL WG® is a powdered product comprising 50% elemental copper as copper hydroxide.
Then mixtures were prepared as per below table:
(§1) Then mixtures #1 to #5 were prepared as per below table:
(§2) Mixtures were prepared at room temperature (around 20° C.) as per the following table: […]

Data set [2] in a line: pH of the mixtures over time. Type of data set: physicochemical. As to conditions: Trt 1 pH (0.1%). The method, then: as §1, §2
Data set [3] deals with strawberry. Description: Phytotoxicity to strawberry (statement). The note with it: applied individually to strawberry; stated, no data shown.
For data set [4], the system named is strawberry. The note with it: in vivo.

For the compound `O=P(O)(O)O` [Phosphoric acid, phosphoric acid], the “effect on stability of peracetic acid (conclusion in words)” value (“effect on stability of peracetic acid” for short) is reported as “prevented peracetic acid from being decomposed” in data set [1] and “prevented the decomposition of peracetic acid by metal ions” in data set [1] (listed as phosphoric acid).
Take `NS(=O)(=O)O` [Sulfamic acid, sulfamic acid]: in data set [1], the “effect on stability of peracetic acid” value is “prevented peracetic acid from being decomposed”.
Still for that read-out and setting: in the case of `OB(O)O` [Boric acid, boric acid] it was “stabilizes PERACETIC ACID in solution for a longer period of time; also recorded: not as good as phosphoric acid in chelating copper hydroxide”.
In the case of `OP(O)O` [Trt 1, Phosphorous acid], the pH worked out at 2.53 in data set [2] (Example 15, 24 hrs, Trt 2 pH (0.2%)); 2.80 in data set [2] (Example 15, 48 hrs, Trt 2 pH (0.2%)); 2.90 in data set [2] (Example 15, 120 hrs, Trt 2 pH (0.2%)); 2.85 in data set [2] (Example 15, 148 hrs, Trt 2 pH (0.2%)); 2.80 in data set [2] (Example 15, 172 hrs, Trt 2 pH (0.2%)); 2.80 in data set [2] (Example 15, room temperature, Time zero (Trt 3-5: after the additions)).
As for `OP(O)O` [Phosphorous acid, phosphorous acid], the phytotoxicity entry in data set [3] is listed as “phytotoxic”. For the same compound, in data set [1], the “effect on stability of peracetic acid” value is “stabilizes the peracetic acid very well”.
As for copper, in data set [4], the phytotoxicity result is “phytotoxic”.
